Results on 35 compounds are retold here after paper PMC11609934, “Exploration and characterization of the antimalarial activity of cyclopropyl carboxamides that target the mitochondrial protein, cytochrome b” (European Journal of Medicinal Chemistry, 2024).

Molecules are shown by their SMILES. Read-outs that look alike come from different tables or passages of the source.

The subject of data set [1] is P. falciparum 3D7 parasites. As to the kind of experiment: P. falciparum 3D7 asexual stage LDH assay (72 h). The class given is cell-based, Plasmodium falciparum. The conditions noted are these: for EC50: Plasmodium falciparum, 3D7, 72 h, means and SDs, three or more experiments; for fold decrease in Pf 3D7 activity relative to 17: ratio of EC50 to compound 17; for fold loss in Pf 3D7 activity relative to W499 (2): carboxamide variants versus cyclopropyl parent. The method, then: To establish the SAR, synthesized analogs were assessed against the asexual stage parasite (72 h) using LDH as a proxy for parasite growth inhibition. Cytotoxicity was monitored against the human HepG2 cell line using Cell TitreGlo as a metabolic marker for cell growth.
P. falciparum 3D7 Asexual Stage LDH Assay. This is a platform assay is routinely undertaken at the Walter and Eliza Hall Institute and details on the protocol has been previously published. Briefly, 10-point dilution series of the compounds were prepared in 384 well assay plates using an Echo555 (Labcyte). Appropriate volumes of 10 mM compound stocks were transferred into the assay plates such that the starting concentration was 1 μM, with a 1 in 3-fold dilution series. All wells were backfilled with DMSO to 40 nL such that this remained constant (0.1 % DMSO). The positive growth control was 0.1 % DMSO and the negative growth control was 100 nM chloroquine. The parasite inoculum (40 μL) was dispensed into plates containing compounds using a Multidrop Combi dispenser (Thermo Scientific). […] Following 72 h growth, plates were sealed with parafilm and frozen at −80 °C overnight. Plates were thawed at room temperature for at least 4 h prior to LDH activity being measured. […] Plates were shaken to ensure mixing and absorbance at 650 nm was measured in an EnVision (PerkinElmer) plate reader after 30 min of incubation at room temperature. […] The equation used is sigmoidal dose response (variable slope), Y = bottom + (top − bottom)/(1 + 10((logEC50 − X) × Hill Slope)).

A short description of data set [2]: Human HepG2 growth inhibition assay (Cell TitreGlo, 48 h). The class given is cell-based. The conditions noted are these: human, HepG2 cells, HepG2 cell growth inhibition over 48 h. The method, then:
To establish the SAR, synthesized analogs were assessed against the asexual stage parasite (72 h) using LDH as a proxy for parasite growth inhibition. Cytotoxicity was monitored against the human HepG2 cell line using Cell TitreGlo as a metabolic marker for cell growth. Cyt b inhibitors typically have high lipophilicity, and so calculated physicochemical properties were determined, while in vitro ADME was also collected on representative analogs to gauge their suitability for efficacy studies in a 4-day P. berghei model.
Human HepG2 Growth Inhibition Assay. This is a routine assay undertaken at the Walter and Eliza Hall Institute and the method has been previously published. HepG2 cells were cultured in Dulbeccos modified eagles medium (DMEM) supplemented with 10 % fetal calf serum (FCS), in a humidified incubator at 37 °C and 5 % CO2. Assay plates (Greiner #781098, 384 well, white, tissue culture treated) were prepared by transferring appropriate volumes of 10 mM compound stocks using an Echo555 (Labcyte) such that the starting concentration was 50 μM, with a 1:2-fold dilution series. All wells were backfilled with DMSO to […] such that this remained constant (0.5 % DMSO). The positive growth control was 0.5 % DMSO and the negative growth control was 10 μM Bortezomib. HepG2 cells were seeded with 1000 cells in 50 μL DMEM with 10 % FCS into each well of the assay plates using a Multidrop Combi dispenser (Thermo Scientific). Plates were incubated at 37 °C and 5 % CO2 for 48 h. Cytotoxicity was determined using Cell Titer Glo (Promega) and calculated as a percentage using DMSO as the positive growth control and 10 μM Bortezomib as a negative growth control. EC50 values were calculated by Dotmatics 5.3 and Spotfire 7.11.1 software using a nonlinear regression four-parameter fit analysis. The equation used is sigmoidal dose response (variable slope), Y = bottom + (top − bottom)/(1 + 10((logEC50 − X) × Hill Slope)).

Setting [3] is: LDH activity of P. falciparum 3D7 parasites over 72 h, read-out: Pf 3D7 EC50 (SD).
Setting [4] is: read-out: Pf 3D7 EC50 (SD), LDH activity of P. falciparum 3D7 parasites over 72 h.

A word on the EC50: it is the concentration giving half of the maximal effect. In the case of `O=C(NC1CC1)c1ccc(CNCc2ccccc2)cc1` [Compound 18, 4-((Benzylamino)methyl)-N-cyclopropylbenzamide], in data set [1] (setting [3]), the half-maximal effective concentration (EC50) was > 10 µM. The term CC50 denotes the concentration that lowers cell viability or growth by half. High values mean lower toxicity to the cells, low ones greater toxicity to the cells. On to `CN(Cc1ccccc1)Cc1ccc(C(=O)NC2CC2)cc1` [Compound 19, 4-((Benzyl(methyl)amino)methyl)-N-cyclopropylbenzamide], for which the EC50 in data set [1] (setting [3]) stood at 2.6 µM. The “fold decrease in Pf 3D7 activity relative to 17” value in data set [1] is listed as 20 fold. In addition, the CC50 at 48 h in data set [2] was > 40 µM. In the same order, the values of `CCN(Cc1ccccc1)Cc1ccc(C(=O)NC2CC2)cc1` [Compound 20, 4-((Benzyl(ethyl)amino)methyl)-N-cyclopropylbenzamide] are 0.7 µM, 4 fold and > 40 µM. As to `CC(C)(C)N(Cc1ccccc1)Cc1ccc(C(=O)NC2CC2)cc1` [Compound 23, 4-((Benzyl(tert-butyl)amino)methyl)-N-cyclopropylbenzamide], the EC50 in data set [1] (setting [3]) turned out to be 0.63 µM. Besides, the CC50 at 48 h in data set [2] is > 40 µM.

With `CCC(C)N(Cc1ccccc1)Cc1ccc(C(=O)NC2CC2)cc1` (centres unmarked) [Compound 24, 4-((Benzyl(sec-butyl)amino)methyl)-N-cyclopropylbenzamide], in data set [1] (setting [3]), the 50% effective concentration (EC50) stood at 0.21 µM. The CC50 at 48 h in data set [2] is > 40 µM. Regarding `O=C(NC1CC1)c1ccc(CN(Cc2ccccc2)Cc2ccccc2)cc1` [Compound 27, N-Cyclopropyl-4-((dibenzylamino)methyl)benzamide], the CC50 at 48 h in data set [2] was > 40 µM.

Consider `O=C(NC1CC1)c1cccc(CN(Cc2ccccc2)C2CC2)c1` [Compound 28, 3-((Benzyl(cyclopropyl)amino)methyl)-N-cyclopropylbenzamide], for which the EC50 in data set [1] (setting [3]) came to 5.6 µM. Moreover, the “fold decrease in Pf 3D7 activity relative to 17” value in data set [1] came to 40 fold. In addition, the 50% cytotoxic concentration (CC50) at 48 h in data set [2] is > 40 µM.

With `NC(=O)c1ccc(CN(Cc2ccc(Cl)cc2Cl)C2CC2)cc1` [Compound 29], the concentration giving a half-maximal response (EC50) in data set [1] (setting [3]) is > 10 µM. Take `CNC(=O)c1ccc(CN(Cc2ccc(Cl)cc2Cl)C2CC2)cc1` [Compound 30]: in data set [1] (setting [3]), the EC50 is 1.18 µM. For the same compound, the CC50 at 48 h in data set [2] was > 40 µM. `CCNC(=O)c1ccc(CN(Cc2ccc(Cl)cc2Cl)C2CC2)cc1` [Compound 31, 4-((Cyclopropyl(2,4-dichlorobenzyl)amino)methyl)-N-ethylbenzamide]: the half-maximal effective concentration (EC50) in data set [1] (setting [3]) came to 0.31 µM. Moreover, in data set [2], the 50% cytotoxic concentration (CC50) at 48 h was > 40 µM.

As for `CCCNC(=O)c1ccc(CN(Cc2ccc(Cl)cc2Cl)C2CC2)cc1` [Compound 32, 4-((Cyclopropyl(2,4-dichlorobenzyl)amino)methyl)-N-propylbenzamide], in data set [1] (setting [3]), the concentration for a half-maximal effect (EC50) came out at 0.64 µM. Also, the CC50 at 48 h in data set [2] was > 40 µM.

As to `CC(C)NC(=O)c1ccc(CN(Cc2ccc(Cl)cc2Cl)C2CC2)cc1` [Compound 33], the EC50 in data set [1] (setting [3]) was found to be 0.69 µM. Also, the CC50 at 48 h in data set [2] was > 40 µM. Take `O=C(NCC(F)(F)F)c1ccc(CN(Cc2ccc(Cl)cc2Cl)C2CC2)cc1` [Compound 34, 4-((Cyclopropyl(2,4-dichlorobenzyl)amino)methyl)-N-(2,2,2-trifluoroethyl)benzamide]: the EC50 in data set [1] (setting [3]) is > 10 µM.

For the compound `CN(C)CCNC(=O)c1ccc(CN(Cc2ccc(Cl)cc2Cl)C2CC2)cc1` [Compound 35], in data set [1] (setting [3]), the concentration giving a half-maximal response (EC50) is 7.6 µM. In addition, the CC50 at 48 h in data set [2] was determined as 9.3 µM. Take `NCCNC(=O)c1ccc(CN(Cc2ccc(Cl)cc2Cl)C2CC2)cc1` [Compound 36, 2-(4-((Cyclopropyl(2,4-dichlorobenzyl)amino)methyl)benzamido)ethan-1-aminium 2,2,2-trifluoroacetate]: in data set [1] (setting [3]), the EC50 was > 10 µM. On to `O=C(NCCO)c1ccc(CN(Cc2ccc(Cl)cc2Cl)C2CC2)cc1` [Compound 37, 4-((Cyclopropyl(2,4-dichlorobenzyl)amino)methyl)-N-(2-hydroxyethyl)benzamide], for which, in data set [1] (setting [3]), the EC50 stood at 2.4 µM. The “fold loss in Pf 3D7 activity relative to W499 (2)” value in data set [1] is given as “approximately 25 fold”. The half-maximal cytotoxic concentration (CC50) at 48 h in data set [2] is > 40 µM.

For `O=C(NC1CCC1)c1ccc(CN(Cc2ccc(Cl)cc2Cl)C2CC2)cc1` [Compound 38], the 50% effective concentration (EC50) in data set [1] (setting [3]) came out at 0.48 µM. Further, in data set [1], the “fold loss in Pf 3D7 activity relative to W499 (2)” value amounted to 4 fold. Besides, the half-maximal cytotoxic concentration (CC50) at 48 h in data set [2] is > 40 µM. Turning to `O=C(NC1CCCC1)c1ccc(CN(Cc2ccc(Cl)cc2Cl)C2CC2)cc1` [Compound 39], the EC50 in data set [1] (setting [4]) came to 1.2 µM. Also, the “fold loss in Pf 3D7 activity relative to W499 (2)” value in data set [1] is on record as 12 fold. The half-maximal cytotoxic concentration (CC50) at 48 h in data set [2] is > 40 µM. For the compound `O=C(Nc1ccccc1)c1ccc(CN(Cc2ccc(Cl)cc2Cl)C2CC2)cc1` [Compound 40], the CC50 at 48 h in data set [2] is > 40 µM. Regarding `O=C(NC1CC1)c1ccc(CN(Cc2ccccc2F)C2CC2)cc1` [Compound 42], in data set [1] (setting [3]), the 50% effective concentration (EC50) was found to be 0.25 µM. For the same compound, the 50% cytotoxic concentration (CC50) at 48 h in data set [2] was > 40 µM.

In the case of `O=C(NC1CC1)c1ccc(CN(Cc2cccc(F)c2)C2CC2)cc1` [Compound 43], the EC50 in data set [1] (setting [3]) turned out to be 0.24 µM. In data set [2], the CC50 at 48 h is > 40 µM. As to `O=C(NC1CC1)c1ccc(CN(Cc2ccc(F)cc2)C2CC2)cc1` [Compound 44], the 50% effective concentration (EC50) in data set [1] (setting [3]) was determined as 0.22 µM. Further, the CC50 at 48 h in data set [2] was > 40 µM.

As for `O=C(NC1CC1)c1ccc(CN(Cc2ccccc2Cl)C2CC2)cc1` [Compound 45, 4-(((2-Chlorobenzyl) (cyclopropyl)amino)methyl)-N-cyclopropylbenzamide], the 50% effective concentration (EC50) in data set [1] (setting [3]) was found to be 0.29 µM. Moreover, in data set [2], the CC50 at 48 h was > 40 µM. With `O=C(NC1CC1)c1ccc(CN(Cc2cccc(Cl)c2)C2CC2)cc1` [Compound 46, 4-(((3-Chlorobenzyl) (cyclopropyl)amino)methyl)-N-cyclopropylbenzamide], the EC50 in data set [1] (setting [3]) came out at 0.34 µM. Moreover, the CC50 at 48 h in data set [2] is > 40 µM.

With `O=C(NC1CC1)c1ccc(CN(Cc2ccc(Cl)cc2)C2CC2)cc1` [Compound 47, 4-(((4-Chlorobenzyl) (cyclopropyl)amino)methyl)-N-cyclopropylbenzamide], the half-maximal effective concentration (EC50) in data set [1] (setting [3]) worked out at 0.21 µM. Further, the CC50 at 48 h in data set [2] was > 40 µM.

Turning to `Cc1ccccc1CN(Cc1ccc(C(=O)NC2CC2)cc1)C1CC1` [Compound 48], the EC50 in data set [1] (setting [3]) came to 0.2 µM. Moreover, the CC50 at 48 h in data set [2] was > 40 µM. Take `CC(=O)Nc1cccc(CN(Cc2ccc(C(=O)NC3CC3)cc2)C2CC2)c1` [Compound 66, 4-(((3-Acetamidobenzyl) (cyclopropyl)amino)methyl)-N-cyclopropylbenzamide]: in data set [1] (setting [3]), the concentration giving a half-maximal response (EC50) is > 10 µM. `CC(=O)Nc1ccc(CN(Cc2ccc(C(=O)NC3CC3)cc2)C2CC2)cc1` [Compound 67, 4-(((4-Acetamidobenzyl) (cyclopropyl)amino)methyl)-N-cyclopropylbenzamide]: in data set [1] (setting [3]), the EC50 was > 10 µM. The same measure, in the same setting: then `O=C(NC1CC1)c1ccc(CN(Cc2cccnc2)C2CC2)cc1` [Compound 86], with > 10 µM; and `O=C(NC1CC1)c1ccc(CNC2CC2)cc1` [Compound 88, N-cyclopropyl-4-((cyclopropylamino)methyl)benzamide], with > 10 µM. Take `CN(Cc1ccc(C(=O)NC2CC2)cc1)C1CC1` [Compound 89]: in data set [1] (setting [3]), the EC50 was > 10 µM. Consider `CC(C)CN(Cc1ccc(C(=O)NC2CC2)cc1)C1CC1` [Compound 92], for which, in data set [1] (setting [4]), the EC50 was determined as 0.54 µM. Moreover, the “fold decrease in Pf 3D7 activity relative to 17” value in data set [1] is “approximately 4 fold”. As for `O=C(NC1CC1)c1ccc(CN(C(=O)c2ccccc2)C2CC2)cc1` [Compound 99, N-Cyclopropyl-N-(4-(cyclopropylcarbamoyl)benzyl)benzamide], the EC50 in data set [1] (setting [3]) is > 10 µM. As for `O=C(NC1CC1)c1ccc(C(=O)N(Cc2ccccc2)C2CC2)cc1` [Compound 100, N [4]-Benzyl-N^1,N [4]-dicyclopropyl-terephthalamide], in data set [1] (setting [3]), the EC50 is > 10 µM.

With `O=C(NC1CC1)c1ncc(CN(Cc2ccccc2)C2CC2)s1` [Compound 106, 5-((Benzyl(cyclopropyl)amino)methyl)-N-cyclopropylthiazole-2-carboxamide], the EC50 in data set [1] (setting [3]) was > 10 µM.
